Assay [1] has as its target Human immunodeficiency virus type 1 protease (Human immunodeficiency virus 1) (UniProt Q72874). Put plainly: Maximal inactivation rate of compound on protease of Human immunodeficiency virus-1 (HIV-I) was determined.
For assay [2] the target is unchanged. Put plainly: Concentration of compound for half maximal inactivation rate on protease of Human immunodeficiency virus-1 (HIV-I) was determined.
For assay [3] the target is unchanged. In words: Half maximal inactivation rate of compound on HIV protease.
Assay [4] shares this target. Put plainly: Maximal inactivation rate of compound on HIV protease.

Consider `CC(C)C[C@@H]1O[C@@H]1[C@H](Cc1ccccc1)NC(=O)C(C)NC(Cc1ccccc1)C(=O)C(=O)OCc1ccccc1` (some centres undefined), for which the K in assay [1] was found to be 0.31 min⁻¹; in assay [2], 20 µM.
As for `O=[N+]([O-])c1ccc(OCC2CO2)cc1` (centres undefined), the values for the K in assay [3] and in assay [4] were 11 mM and 0.004 min⁻¹, respectively.

Values taken from ChEMBL document CHEMBL1153692, “Inactivation of HIV-1 protease by a tripeptidyl epoxide” (Bioorg Med Chem Lett, 1992).
